Assay results published in the supplement of paper PMC10307832.

How the values were obtained:
Experiment in all cases: relative viability (nuclei count vs DMSO), 5 days (fraction); higher = more cells survive
[1] = compound: C1=CC2=NC=CN=C2C=C1/C=C/3\C(=O)NC(=O)S3 + C[C@]1(O)C[C@@H](c2nc(-c3ccc4ccc(-c5ccccc5)nc4c3)c3c(N)nccn32)C1 [Linsitinib] (partner 1 µM)
Outline: (§1)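 Values are medians from duplicate plates. Each reflects relative viability, defined as the nuclei count of treated wells over that of vehicle wells. Lung cancer cell lines in 1536-well plates were pin-tool dosed one day after seeding with one drug alone or with a fixed anchor-drug dose plus five library-drug doses (not always all listed) in √10 steps, then fixed, stained and imaged at 4× after 5 days.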

BGJ398 + Crizotinib = compound: CCN1CCN(c2ccc(Nc3cc(N(C)C(=O)Nc4c(Cl)c(OC)cc(OC)c4Cl)ncn3)cc2)CC1 [BGJ398] + C[C@@H](Oc1cc(-c2cnn(C3CCNCC3)c2)cnc1N)c1c(Cl)ccc(F)c1Cl [Crizotinib] (partner 1 µM)
Outline: as §1

BGJ398 + Pemetrexed = compound: CCN1CCN(c2ccc(Nc3cc(N(C)C(=O)Nc4c(Cl)c(OC)cc(OC)c4Cl)ncn3)cc2)CC1 [BGJ398] + Nc1nc2[nH]cc(CCc3ccc(C(=O)N[C@@H](CCC(=O)O)C(=O)O)cc3)c2c(=O)[nH]1 [Pemetrexed] (partner 0.2 µM)
Outline: as §1

BGJ398 + Olaparib = compound: CCN1CCN(c2ccc(Nc3cc(N(C)C(=O)Nc4c(Cl)c(OC)cc(OC)c4Cl)ncn3)cc2)CC1 [BGJ398] + O=C(c1cc(Cc2n[nH]c(=O)c3ccccc23)ccc1F)N1CCN(C(=O)C2CC2)CC1 [Olaparib] (partner 8 µM)
Outline: as §1

## HCC-366
[1]; first compound 0.02 µM
  relative viability: 0.636
[1]; first compound 0.06325 µM
  relative viability: 0.832
[1]; first compound 0.2 µM
  relative viability: 0.734
[1]; first compound 0.6325 µM
  relative viability: 0.501
[1]; first compound 2 µM
  relative viability: 0.638
BGJ398 + Crizotinib; first compound 0.01 µM
  relative viability: 0.474
BGJ398 + Crizotinib; first compound 0.03162 µM
  relative viability: 0.66
BGJ398 + Crizotinib; first compound 0.1 µM
  relative viability: 0.768
BGJ398 + Crizotinib; first compound 0.3162 µM
  relative viability: 0.627
BGJ398 + Crizotinib; first compound 1 µM
  relative viability: 0.59
BGJ398 + Pemetrexed; first compound 0.01 µM
  relative viability: 0.161
BGJ398 + Pemetrexed; first compound 0.03162 µM
  relative viability: 0.168
BGJ398 + Pemetrexed; first compound 0.1 µM
  relative viability: 0.163
BGJ398 + Pemetrexed; first compound 0.3162 µM
  relative viability: 0.172
BGJ398 + Pemetrexed; first compound 1 µM
  relative viability: 0.132
BGJ398 + Olaparib; first compound 0.01 µM
  relative viability: 0.368
BGJ398 + Olaparib; first compound 0.03162 µM
  relative viability: 0.378
BGJ398 + Olaparib; first compound 0.1 µM
  relative viability: 0.422
BGJ398 + Olaparib; first compound 0.3162 µM
  relative viability: 0.335
BGJ398 + Olaparib; first compound 1 µM
  relative viability: 0.448

## BEN
[1]; first compound 0.02 µM
  relative viability: 0.812
[1]; first compound 0.06325 µM
  relative viability: 0.922
[1]; first compound 0.2 µM
  relative viability: 0.899
[1]; first compound 0.6325 µM
  relative viability: 0.843
[1]; first compound 2 µM
  relative viability: 0.93
BGJ398 + Crizotinib; first compound 0.01 µM
  relative viability: 0.735
BGJ398 + Crizotinib; first compound 0.03162 µM
  relative viability: 0.871
BGJ398 + Crizotinib; first compound 0.1 µM
  relative viability: 0.893
BGJ398 + Crizotinib; first compound 0.3162 µM
  relative viability: 0.81
BGJ398 + Crizotinib; first compound 1 µM
  relative viability: 0.797
BGJ398 + Pemetrexed; first compound 0.01 µM
  relative viability: 0.703
BGJ398 + Pemetrexed; first compound 0.03162 µM
  relative viability: 0.812
BGJ398 + Pemetrexed; first compound 0.1 µM
  relative viability: 0.751
BGJ398 + Pemetrexed; first compound 0.3162 µM
  relative viability: 0.749
BGJ398 + Pemetrexed; first compound 1 µM
  relative viability: 0.606
BGJ398 + Olaparib; first compound 0.01 µM
  relative viability: 1.09
BGJ398 + Olaparib; first compound 0.03162 µM
  relative viability: 1.19
BGJ398 + Olaparib; first compound 0.1 µM
  relative viability: 1.18
BGJ398 + Olaparib; first compound 0.3162 µM
  relative viability: 0.991
BGJ398 + Olaparib; first compound 1 µM
  relative viability: 0.861

## NCI-H23
[1]; first compound 0.02 µM
  relative viability: 0.575
[1]; first compound 0.06325 µM
  relative viability: 0.649
[1]; first compound 0.2 µM
  relative viability: 0.717
[1]; first compound 0.6325 µM
  relative viability: 0.588
[1]; first compound 2 µM
  relative viability: 0.603
BGJ398 + Crizotinib; first compound 0.01 µM
  relative viability: 0.531
BGJ398 + Crizotinib; first compound 0.03162 µM
  relative viability: 0.539
BGJ398 + Crizotinib; first compound 0.1 µM
  relative viability: 0.486
BGJ398 + Crizotinib; first compound 0.3162 µM
  relative viability: 0.58
BGJ398 + Crizotinib; first compound 1 µM
  relative viability: 0.566
BGJ398 + Pemetrexed; first compound 0.01 µM
  relative viability: 0.735
BGJ398 + Pemetrexed; first compound 0.03162 µM
  relative viability: 0.652
BGJ398 + Pemetrexed; first compound 0.1 µM
  relative viability: 0.528
BGJ398 + Pemetrexed; first compound 0.3162 µM
  relative viability: 0.715
BGJ398 + Pemetrexed; first compound 1 µM
  relative viability: 0.541
BGJ398 + Olaparib; first compound 0.01 µM
  relative viability: 0.333
BGJ398 + Olaparib; first compound 0.03162 µM
  relative viability: 0.297
BGJ398 + Olaparib; first compound 0.1 µM
  relative viability: 0.303
BGJ398 + Olaparib; first compound 0.3162 µM
  relative viability: 0.371
BGJ398 + Olaparib; first compound 1 µM
  relative viability: 0.268

## 201T
[1]; first compound 0.02 µM
  relative viability: 0.807
[1]; first compound 0.06325 µM
  relative viability: 1.07
[1]; first compound 0.2 µM
  relative viability: 0.997
[1]; first compound 0.6325 µM
  relative viability: 0.949
[1]; first compound 2 µM
  relative viability: 1.01
BGJ398 + Crizotinib; first compound 0.01 µM
  relative viability: 1.12
BGJ398 + Crizotinib; first compound 0.03162 µM
  relative viability: 0.988
BGJ398 + Crizotinib; first compound 0.1 µM
  relative viability: 0.996
BGJ398 + Crizotinib; first compound 0.3162 µM
  relative viability: 1.01
BGJ398 + Crizotinib; first compound 1 µM
  relative viability: 0.981
BGJ398 + Pemetrexed; first compound 0.01 µM
  relative viability: 0.343
BGJ398 + Pemetrexed; first compound 0.03162 µM
  relative viability: 0.339
BGJ398 + Pemetrexed; first compound 0.1 µM
  relative viability: 0.338
BGJ398 + Pemetrexed; first compound 0.3162 µM
  relative viability: 0.329
BGJ398 + Pemetrexed; first compound 1 µM
  relative viability: 0.334
BGJ398 + Olaparib; first compound 0.01 µM
  relative viability: 0.907
BGJ398 + Olaparib; first compound 0.03162 µM
  relative viability: 0.791
BGJ398 + Olaparib; first compound 0.1 µM
  relative viability: 0.858
BGJ398 + Olaparib; first compound 0.3162 µM
  relative viability: 0.822
BGJ398 + Olaparib; first compound 1 µM
  relative viability: 0.843

## NCI-H460
[1]; first compound 0.02 µM
  relative viability: 0.718
[1]; first compound 0.06325 µM
  relative viability: 1.32
[1]; first compound 0.2 µM
  relative viability: 0.787
[1]; first compound 0.6325 µM
  relative viability: 0.687
[1]; first compound 2 µM
  relative viability: 0.872
BGJ398 + Crizotinib; first compound 0.01 µM
  relative viability: 0.59
BGJ398 + Crizotinib; first compound 0.03162 µM
  relative viability: 0.861
BGJ398 + Crizotinib; first compound 0.1 µM
  relative viability: 1.02
BGJ398 + Crizotinib; first compound 0.3162 µM
  relative viability: 0.892
BGJ398 + Crizotinib; first compound 1 µM
  relative viability: 0.826
BGJ398 + Pemetrexed; first compound 0.01 µM
  relative viability: 0.0621
BGJ398 + Pemetrexed; first compound 0.03162 µM
  relative viability: 0.0761
BGJ398 + Pemetrexed; first compound 0.1 µM
  relative viability: 0.0595
BGJ398 + Pemetrexed; first compound 0.3162 µM
  relative viability: 0.0608
BGJ398 + Pemetrexed; first compound 1 µM
  relative viability: 0.0687
BGJ398 + Olaparib; first compound 0.01 µM
  relative viability: 0.39
BGJ398 + Olaparib; first compound 0.03162 µM
  relative viability: 0.42
BGJ398 + Olaparib; first compound 0.1 µM
  relative viability: 0.428
BGJ398 + Olaparib; first compound 0.3162 µM
  relative viability: 0.414
BGJ398 + Olaparib; first compound 1 µM
  relative viability: 0.381
